Measured values from ChEMBL document CHEMBL3045782, “SYNTHESIS OF THE RIGID ANALOGUES OF AN SSRI BENZENEPROPANAMINE” (Med Chem Res, 2004).
Active and inactive are the calls of the source. The rule behind the calls is not given here.

Columns and labels:
[1] = test system: Mus musculus; test: Anorexigenic activity in Mus musculus albino (mouse) assessed as anorexia at 75 umol/kg, ip relative to fluoxetine; type: functional
[2] = test system: Mus musculus; test: Anorexigenic activity in Mus musculus albino (mouse) assessed as anorexia at 75 umol/kg, ip; type: functional
[3] = test system: Mus musculus; test: Antidepressant activity in Mus musculus albino (mouse) assessed as reversal of reserpine-induced ptosis, sedation and crouching at 75 umol/kg, ip; type: functional
[4] = test system: Mus musculus; test: Toxicity in Mus musculus albino (mouse) assessed as effect on gross behavior activity at 75 umol/kg, ip; type: organism-based; settings: in vivo

| SMILES | Activity [1] [%] | Activity [2] [%] | Activity [3] | Activity [4] |
| --- | --- | --- | --- | --- |
| OC(COc1ccc(Br)cc1)CN1CCC(Oc2ccc(C(F)(F)F)cc2)CC1 (stereo unspecified) | 95.09 | 77.6 | inactive | Non-toxic |
| CCC(=O)c1ccc(OCC(O)CN2CCC(Oc3ccc(C(F)(F)F)cc3)CC2)cc1 (stereo unspecified) | 67.64 | 55.2 | inactive | Non-toxic |
| COC(=O)c1ccccc1OCC(O)CN1CCC(Oc2ccc(C(F)(F)F)cc2)CC1 (stereo unspecified) | 43.13 | 35.2 | inactive | Non-toxic |
| CNCCC(Oc1ccc(C(F)(F)F)cc1)c1ccccc1 (stereo unspecified) [FLUOXETINE] | – | 81.6 | 100% | – |
| FC(F)(F)c1ccc(OC2CCNCC2)cc1 | 81.86 | 66.8 | 75% | Non-toxic |
| OC(COc1ccc(Cl)cc1)CN1CCC(Oc2ccc(C(F)(F)F)cc2)CC1 (stereo unspecified) | 75.49 | 61.6 | 75% | Non-toxic |
| OC(COc1ccc(C(F)(F)F)cc1)CN1CCC(Oc2ccc(C(F)(F)F)cc2)CC1 (stereo unspecified) | 77.94 | 63.6 | inactive | Non-toxic |
| CC(=O)c1ccc(OCC(O)CN2CCC(Oc3ccc(C(F)(F)F)cc3)CC2)cc1 (stereo unspecified) | 96.07 | 78.4 | inactive | Non-toxic |
| CC(=O)Nc1ccc(OCC(O)CN2CCC(Oc3ccc(C(F)(F)F)cc3)CC2)cc1 (stereo unspecified) | 61.67 | 50.4 | inactive | Non-toxic |
| CN1CCC(O)(c2ccccc2)CC1 | 56.86 | 46.4 | inactive | Non-toxic |
| CN1CCC(Oc2ccc(C(F)(F)F)cc2)CC1 | 28.92 | 23.6 | inactive | Non-toxic |
| COC(=O)c1ccc(OCC(O)CN2CCC(Oc3ccc(C(F)(F)F)cc3)CC2)cc1 (stereo unspecified) | 32.84 | 26.8 | inactive | Non-toxic |
| COc1cccc(OCC(O)CN2CCC(Oc3ccc(C(F)(F)F)cc3)CC2)c1 (stereo unspecified) | 63.23 | 51.6 | 50% | Non-toxic |
| OC(COc1cccc(C(F)(F)F)c1)CN1CCC(Oc2ccc(C(F)(F)F)cc2)CC1 (stereo unspecified) | 38.23 | 31.2 | inactive | Non-toxic |
| OC(COc1ccccc1)CN1CCC(Oc2ccc(C(F)(F)F)cc2)CC1 (stereo unspecified) | 82.84 | 67.6 | inactive | Non-toxic |
| COc1ccc(OCC(O)CN2CCC(Oc3ccc(C(F)(F)F)cc3)CC2)cc1 (stereo unspecified) | 47.05 | 38.4 | inactive | Non-toxic |
| N#Cc1ccc(OCC(O)CN2CCC(Oc3ccc(C(F)(F)F)cc3)CC2)cc1 (stereo unspecified) | 70.58 | 57.6 | inactive | Non-toxic |
